Key:
human APJ receptor = human APJ receptor (Homo sapiens (Human), UniProt P35414); assay: [35S]GTPγS binding assay on membranes from CHO cells stably expressing human APJ receptor; type: biochemical; conditions: read-out: Activity hAPJ SPA EC50 IP
How it was run: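 Membranes from CHO cells stably expressing human APJ incubated with ligand, 0.2 nM [35S]GTPγS and WGA SPA beads in HEPES pH 7.5 with 5 mM MgCl2, 200 mM NaCl, 3 μM GDP, 90 min at RT. Nonspecific binding defined with 100 μM GTPγS; EC50 by non-linear regression.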

[1] = system: isolated perfused rat hearts; assay: Ex vivo isolated perfused rat heart assay (Langendorff apparatus), load independent inotropic and lusitropic effects; design: species or system Sprague Dawley rat; conditions: ex vivo isolated perfused rat heart, percent change over vehicle; for Isolated Heart Assay dP/dtmax (%): contractility; for Isolated Heart Assay dP/dtmin (%): relaxation
Text: Evidence for Load Independent Inotropic Effects with APJ Agonists Using Ex Vivo Assay (Isolated Perfused Rat Hearts)
Naive Sprague Dawley® SD rats (Harlan laboratories (Livermore, Calif. USA)) were anaesthetized and hearts were excised followed by cannulation in the Langendorff apparatus (Harvard apparatus, Holliston, Mass. USA) via aorta. The heart was perfused retrograde with modified oxygenated Krebs-Henseleit buffer (Skrzypiec-Spring M et al., (2007) J. Pharmacol Toxicol Methods 55: 113-126). The pressure of the solution causes the aortic valve to shut and the perfusate is then forced into the ostium and the coronary vessels. This allows the heart to beat for several h. A balloon was inserted into the left ventricle (LV) to measure dP/dtmax (derivative of left ventricular pressure) as an index of cardiac contractility. The APJ agonist was perfused constantly in a dose dependent manner into the heart to examine cardiac contractility.
Example 49.0 was infused at different concentrations and load independent contractility was measured by index of LV dP/dtmax and the results are expressed as a percent change over vehicle. […] Example 49.0 was infused at different concentrations and load independent lusitropic effect (relaxation) was measured by index of LV dP/dtmin where results are expressed as percent change over vehicle. […] Example 60.0 was infused at different concentrations and load independent contractility was measured by index of LV dP/dtmax and the results are expressed as a percent change over vehicle. […] Example 60.0 was infused at different concentrations and load independent lusitropic effect (relaxation) was measured by index of LV dP/dtmin where results are expressed as percent change over vehicle.

Chain of human APJ receptor (P35414 whole entry): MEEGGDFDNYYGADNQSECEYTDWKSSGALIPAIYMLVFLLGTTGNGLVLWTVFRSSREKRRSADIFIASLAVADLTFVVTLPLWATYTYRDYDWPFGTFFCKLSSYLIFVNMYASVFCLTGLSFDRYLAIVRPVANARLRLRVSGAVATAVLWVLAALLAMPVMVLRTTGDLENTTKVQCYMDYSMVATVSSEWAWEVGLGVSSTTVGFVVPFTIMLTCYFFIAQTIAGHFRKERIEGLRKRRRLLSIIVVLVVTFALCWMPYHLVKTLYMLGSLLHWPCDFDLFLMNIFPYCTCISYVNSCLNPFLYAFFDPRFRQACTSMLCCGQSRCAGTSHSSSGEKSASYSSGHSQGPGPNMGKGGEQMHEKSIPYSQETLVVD

Structure (SMILES)	EC50 (human APJ receptor)	Isolated Heart Assay dP/dtmax (%) [1]	Isolated Heart Assay dP/dtmin (%) [1]
COc1cccc(OC)c1-n1c(NS(=O)(=O)[C@@H](C)[C@H](C)c2ncc(C)cn2)nnc1[C@H]1OCC[C@H]1C (single isomer, unassigned) [Example 72.0, (2S,3R)-N-(4-(2,6-dimethoxyphenyl)-5-((2R,3S)-3-methyltetrahydrofuran-2-yl)-4H-1,2,4-triazol-3-yl)-3-(5-methylpyrimidin-2-yl)butane-2-sulfonamide or (2S,3R)-N-(4-(2,6-dimethoxyphenyl)-5-((2S,3R)-3-methyltetrahydrofuran-2-yl)-4H-1,2,4-triazol-3-yl)-3-(5-methylpyrimidin-2-yl)butane-2-sulfonamide]	6.8 nM	5.9%	2.5%
COc1cccc(OC)c1-n1c(NS(=O)(=O)[C@@H](C)[C@H](OC)c2ncc(Cl)cn2)nnc1[C@H]1OCC[C@H]1C (single isomer, unassigned) [Example 73.0, (1R,2S)-1-(5-chloropyrimidin-2-yl)-N-(4-(2,6-dimethoxyphenyl)-5-((2R,3S)-3-methyltetrahydrofuran-2-yl)-4H-1,2,4-triazol-3-yl)-1-methoxypropane-2-sulfonamide or (1R,2S)-1-(5-chloropyrimidin-2-yl)-N-(4-(2,6-dimethoxyphenyl)-5-((2S,3R)-3-methyltetrahydrofuran-2-yl)-4H-1,2,4-triazol-3-yl)-1-methoxypropane-2-sulfonamide]	1.4 nM	2.0%	No effect
COc1cccc(OC)c1-n1c(NS(=O)(=O)[C@@H](C)[C@H](OC)c2ncc(Cl)cn2)nnc1[C@H]1OCC[C@H]1C (single isomer, unassigned) [Example 74.0, (1R,2S)-1-(5-chloropyrimidin-2-yl)-N-(4-(2,6-dimethoxyphenyl)-5-((2R,3S)-3-methyltetrahydrofuran-2-yl)-4H-1,2,4-triazol-3-yl)-1-methoxypropane-2-sulfonamide or (1R,2S)-1-(5-chloropyrimidin-2-yl)-N-(4-(2,6-dimethoxyphenyl)-5-((2S,3R)-3-methyltetrahydrofuran-2-yl)-4H-1,2,4-triazol-3-yl)-1-methoxypropane-2-sulfonamide]	120 nM	5.8%	2.1%
COc1cccc(OC)c1-n1c(NS(=O)(=O)[C@@H](C)[C@H](OC)c2ncc(Cl)cn2)nnc1[C@H]1CC[C@@H](C)O1 (single isomer, unassigned) [Example 77.0, (1R,2S)-1-(5-chloropyrimidin-2-yl)-N-(4-(2,6-dimethoxyphenyl)-5-((2S,5S)-5-methyltetrahydrofuran-2-yl)-4H-1,2,4-triazol-3-yl)-1-methoxy-propane-2-sulfonamide or (1R,2S)-1-(5-chloropyrimidin-2-yl)-N-(4-(2,6-dimethoxyphenyl)-5-((2R,5R)-5-methyltetrahydrofuran-2-yl)-4H-1,2,4-triazol-3-yl)-1-methoxypropane-2-sulfonamide]	0.14 nM	5.0%	No effect
COc1cccc(OC)c1-n1c(NS(=O)(=O)[C@@H](C)[C@H](OC)c2ncc(Cl)cn2)nnc1[C@H]1CC[C@@H](C)O1 (single isomer, unassigned) [Example 78.0, (1R,2S)-1-(5-chloropyrimidin-2-yl)-N-(4-(2,6-dimethoxyphenyl)-5-((2S,5S)-5-methyltetrahydrofuran-2-yl)-4H-1,2,4-triazol-3-yl)-1-methoxy-propane-2-sulfonamide or (1R,2S)-1-(5-chloropyrimidin-2-yl)-N-(4-(2,6-dimethoxyphenyl)-5-((2R,5R)-5-methyltetrahydrofuran-2-yl)-4H-1,2,4-triazol-3-yl)-1-methoxypropane-2-sulfonamide]	5 nM	7.09%	8.61%
COc1ncnc(OC)c1-n1c(NS(=O)(=O)[C@@H](C)[C@H](OC)c2ncc(Cl)cn2)nnc1[C@H]1CCCO1 (single isomer, unassigned) [Example 80.0, (1R,2S)-1-(5-chloropyrimidin-2-yl)-N-(4-(4,6-dimethoxypyrimidin-5-yl)-5-((S)-tetrahydrofuran-2-yl)-4H-1,2,4-triazol-3-yl)-1-methoxypropane-2-sulfonamide or (1R,2S)-1-(5-chloropyrimidin-2-yl)-N-(4-(4,6-dimethoxypyrimidin-5-yl)-5-((R)-tetrahydrofuran-2-yl)-4H-1,2,4-triazol-3-yl)-1-methoxypropane-2-sulfonamide]	9.1 nM	No effect	No effect
COc1cccc(OC)c1-n1c(NS(=O)(=O)[C@@H](C)[C@@H](OC(C)C)c2ncc(C)cn2)nnc1[C@H]1CCCO1 (single isomer, unassigned) [Example 97.0, (1S,2S)-N-(4-(2,6-dimethoxyphenyl)-5-((S)-tetrahydrofuran-2-yl)-4H-1,2,4-triazol-3-yl)-1-isopropoxy-1-(5-methylpyrimidin-2-yl)propane-2-sulfonamide or (1S,2S)-N-(4-(2,6-dimethoxyphenyl)-5-((R)-tetrahydrofuran-2-yl)-4H-1,2,4-triazol-3-yl)-1-isopropoxy-1-(5-methyl-pyrimidin-2-yl)propane-2-sulfonamide]	15 nM	5.5%	2.0%
COc1ncnc(OC)c1-n1c(NS(=O)(=O)[C@@H](C)[C@H](C)c2ncc(Cl)cn2)nnc1[C@H]1CCCOC1 (single isomer, unassigned) [Example 102.0, (2S,3R)-3-(5-chloropyrimidin-2-yl)-N-(4-(4,6-dimethoxypyrimidin-5-yl)-5-((S)-tetrahydro-2H-pyran-3-yl)-4H-1,2,4-triazol-3-yl)butane-2-sulfonamide or (2S,3R)-3-(5-chloropyrimidin-2-yl)-N-(4-(4,6-dimethoxypyrimidin-5-yl)-5-((R)-tetrahydro-2H-pyran-3-yl)-4H-1,2,4-triazol-3-yl)butane-2-sulfonamide]	5.2 nM	2.0%	5.0%
CO[C@H](c1ncc(Cl)cn1)[C@H](C)S(=O)(=O)Nc1nnc([C@H]2CCCCO2)n1C1(C)CC1 (single isomer, unassigned) [Example 112.0, (1R,2S)-1-(5-chloropyrimidin-2-yl)-1-methoxy-N-(4-(1-methylcyclopropyl)-5-((S)-tetrahydro-2H-pyran-2-yl)-4H-1,2,4-triazol-3-yl)propane-2-sulfonamide or (1R,2S)-1-(5-chloropyrimidin-2-yl)-1-methoxy-N-(4-(1-methylcyclopropyl)-5-((R)-tetrahydro-2H-pyran-2-yl)-4H-1,2,4-triazol-3-yl)propane-2-sulfonamide]	14 nM	No effect	No effect
COc1ncnc(OC)c1-n1c(NS(=O)(=O)[C@@H](C)[C@H](OC)c2ncc(Cl)cn2)nnc1[C@H]1CCC(C)(C)O1 (single isomer, unassigned) [Example 139.0, (1R,2S)-1-(5-chloropyrimidin-2-yl)-N-(4-(4,6-dimethoxypyrimidin-5-yl)-5-((S)-5,5-dimethyltetrahydrofuran-2-yl)-4H-1,2,4-triazol-3-yl)-1-methoxypropane-2-sulfonamide or (1R,2S)-1-(5-chloropyrimidin-2-yl)-N-(4-(4,6-dimethoxypyrimidin-5-yl)-5-((R)-5,5-dimethyhetrahydrofuran-2-yl)-4H-1,2,4-triazol-3-yl)-1-methoxypropane-2-sulfonamide]	4.8 nM	20.9%	30.4%
COc1cccc(OC)c1-n1c(NS(=O)(=O)[C@@H](C)[C@H](O)c2ncc(C)cn2)nnc1[C@H]1CCOC1 (single isomer, unassigned) [Example 140.0, (1R,2S)-N-(4-(2,6-dimethoxyphenyl)-5-((S)-tetrahydrofuran-3-yl)-4H-1,2,4-triazol-3-yl)-1-hydroxy-1-(5-methylpyrimidin-2-yl)propane-2-sulfonamide or (1R,2S)-N-(4-(2,6-dimethoxyphenyl)-5-((R)-tetrahydrofuran-3-yl)-4H-1,2,4-triazol-3-yl)-1-hydroxy-1-(5-methylpyrimidin-2-yl)propane-2-sulfonamide]	90 nM	8.85%	15.4%

From US10150760B2, “Compounds for use in preparing heterocyclic triazole agonists of the APJ receptor” (AMGEN INC., priority 2016, dated 2018)
